Results from patent US12558351B2, “Compositions and methods for enhancing cancer immune checkpoint therapy” (DUKE UNIVERSITY, priority 2019, dated 2026).

Experiments:
p-TBK [1] = experiment: Western blot of p-TBK in B16 cells; type: cell-based, mouse
Method: (§1) Cells lysates were boiled in sodium dodecyl sulfate (SDS) sample loading buffer, resolved by 10% SDS-polyacrylamide gel electrophoresis (SDS-PAGE) and transferred to nitrocellulose. The membranes were blocked in 5% milk in Tris-buffered saline and Tween 20 (TBST; 10 mM Tris-HCl [pH 8.0], 150 mM NaCl, 0.1% Tween 20) for 1 hr at room temperature. After washing twice with TBST, the membranes were incubated with appropriate primary antibodies in BSA/TBST for overnight and then washed three times with TBST, probed with horseradish […] anti-immunoglobulin (1:5000 dilution) for 1 hr at room temperature. After three washes with TBST, immunoreacted products were visualized using enhanced chemiluminescence reagent and autoradiography.

[2] = test system: pro-inflammatory cytokine genes involved in cellular innate immunity; experiment: Q-RT-PCR of cytokine mRNA in wild type 4T1 cells treated with ATM inhibitors; type: cell-based, mouse; settings: FIG. 10
Method: (§2) Total RNA was extracted from cells by use of RNeasy Mini Kit (Qiagen) according to manufacturer's instructions. RNA was subjected to cDNA synthesis with random hexamer primers using Superscript II reverse transcriptase (Invitrogen). Quantitative real-time PCR was performed using Quanti Test SYBR Green PCR Master Mix Kit (Qiagen). Primers used for different target genes are listed in the Sequences section herein.

ISGs = experiment: qRT-PCR of ISGs in B16F10 cells; type: cell-based, mouse
Method: as §2

p-TBK [3] = experiment: Western blot of p-TBK in MDA-MB-231 cells; type: cell-based; settings: human MDA-MB-231 cells, Ku55933 for 6 hours; FIG. 91
Method: as §1

[4] = test system: mitochondrial DNA (mtDNA) release; experiment: Q-PCR of mtDNA in digitonin cytosolic extracts of B16F10 cells; type: cell-based, mouse; settings: 1 μM AZD1390 for 48 hours, FIGS. 59, 60
cGAS-STING = experiment: Ethidium bromide mtDNA depletion, cGAS-STING activation in B16F10 cells; type: cell-based, mouse; settings: wild-type B16F10, 100 ng/ml ethidium bromide 20 days, then 1 μM AZD1390 48 hr; FIG. 103
Method: as §1
A previously published protocol was used (White, M. J. et al. Cell (2014) doi:10.1016/j.cell1.2014.11.036). Vector control, ATM KO and wild-type B16 cells were cultured in Dulbecco's modified Eagle's medium (DMEM) with 10% FBS. About 100 ng/ml ethidium bromide was added to the medium for 20 days before the cells were harvested for experiments.
Total RNA was extracted from cells by use of RNeasy Mini Kit (Qiagen) according to manufacturer's instructions. […] Quantitative real-time PCR was performed using Quanti Test SYBR Green PCR Master Mix Kit (Qiagen). […]

B16F10 melanoma = experiment: Tumor growth delay and survival, B16F10 melanoma in C57BL/6 mice; type: in vivo, mouse
Method: (§3) All animal experiments conducted in this study were approved by Duke University Institutional Animal Use and Care Committee. C57BL/6J and Balb/C, mice were purchased from The Jackson Laboratory. NSG mice were purchased from Division of Laboratory Animal Resources (DLAR) of Duke University. Prior to tumor cell injection, age-matched 6-8 weeks old mice were shaved at one of the flanks. Tumor cells were then injected into shaved flanks subcutaneously with Lenti-CRISPRv2 modified control or target gene-specific knockout tumor cells. Tumor volumes were measured every 2-3 days and calculated by the formula: […]. The mice were sacrificed when tumors reached 2000 mm^3.
(§4) For antibody treatments, mice were given 100 μg antibody via intraperitoneal (i.p.) injection at day 6, 9, 12 post tumor cells injection using following antibodies: anti-PD1 (clone 29F.1A12) or isotype (clone 2A3) from BioXCell.

4T1 tumor = experiment: Tumor growth delay and survival, 4T1 tumors in Balb/c mice; type: in vivo; settings: 4T1, Balb/c; anti-PD1 100 μg/mouse days 6, 9, 12 or AZD1390 10 mg/kg daily days 4-14; FIGS. 27, 28
Method: as §3, §4

glioma = settings: preclinical models; Durant et al. Sci Adv 2018; cited from earlier work
ATM kinase = ATM kinase (Homo sapiens, UniProt Q13315); settings: Durant et al. Sci Adv 2018; cited from earlier work
Chain of ATM kinase (Q13315 whole entry): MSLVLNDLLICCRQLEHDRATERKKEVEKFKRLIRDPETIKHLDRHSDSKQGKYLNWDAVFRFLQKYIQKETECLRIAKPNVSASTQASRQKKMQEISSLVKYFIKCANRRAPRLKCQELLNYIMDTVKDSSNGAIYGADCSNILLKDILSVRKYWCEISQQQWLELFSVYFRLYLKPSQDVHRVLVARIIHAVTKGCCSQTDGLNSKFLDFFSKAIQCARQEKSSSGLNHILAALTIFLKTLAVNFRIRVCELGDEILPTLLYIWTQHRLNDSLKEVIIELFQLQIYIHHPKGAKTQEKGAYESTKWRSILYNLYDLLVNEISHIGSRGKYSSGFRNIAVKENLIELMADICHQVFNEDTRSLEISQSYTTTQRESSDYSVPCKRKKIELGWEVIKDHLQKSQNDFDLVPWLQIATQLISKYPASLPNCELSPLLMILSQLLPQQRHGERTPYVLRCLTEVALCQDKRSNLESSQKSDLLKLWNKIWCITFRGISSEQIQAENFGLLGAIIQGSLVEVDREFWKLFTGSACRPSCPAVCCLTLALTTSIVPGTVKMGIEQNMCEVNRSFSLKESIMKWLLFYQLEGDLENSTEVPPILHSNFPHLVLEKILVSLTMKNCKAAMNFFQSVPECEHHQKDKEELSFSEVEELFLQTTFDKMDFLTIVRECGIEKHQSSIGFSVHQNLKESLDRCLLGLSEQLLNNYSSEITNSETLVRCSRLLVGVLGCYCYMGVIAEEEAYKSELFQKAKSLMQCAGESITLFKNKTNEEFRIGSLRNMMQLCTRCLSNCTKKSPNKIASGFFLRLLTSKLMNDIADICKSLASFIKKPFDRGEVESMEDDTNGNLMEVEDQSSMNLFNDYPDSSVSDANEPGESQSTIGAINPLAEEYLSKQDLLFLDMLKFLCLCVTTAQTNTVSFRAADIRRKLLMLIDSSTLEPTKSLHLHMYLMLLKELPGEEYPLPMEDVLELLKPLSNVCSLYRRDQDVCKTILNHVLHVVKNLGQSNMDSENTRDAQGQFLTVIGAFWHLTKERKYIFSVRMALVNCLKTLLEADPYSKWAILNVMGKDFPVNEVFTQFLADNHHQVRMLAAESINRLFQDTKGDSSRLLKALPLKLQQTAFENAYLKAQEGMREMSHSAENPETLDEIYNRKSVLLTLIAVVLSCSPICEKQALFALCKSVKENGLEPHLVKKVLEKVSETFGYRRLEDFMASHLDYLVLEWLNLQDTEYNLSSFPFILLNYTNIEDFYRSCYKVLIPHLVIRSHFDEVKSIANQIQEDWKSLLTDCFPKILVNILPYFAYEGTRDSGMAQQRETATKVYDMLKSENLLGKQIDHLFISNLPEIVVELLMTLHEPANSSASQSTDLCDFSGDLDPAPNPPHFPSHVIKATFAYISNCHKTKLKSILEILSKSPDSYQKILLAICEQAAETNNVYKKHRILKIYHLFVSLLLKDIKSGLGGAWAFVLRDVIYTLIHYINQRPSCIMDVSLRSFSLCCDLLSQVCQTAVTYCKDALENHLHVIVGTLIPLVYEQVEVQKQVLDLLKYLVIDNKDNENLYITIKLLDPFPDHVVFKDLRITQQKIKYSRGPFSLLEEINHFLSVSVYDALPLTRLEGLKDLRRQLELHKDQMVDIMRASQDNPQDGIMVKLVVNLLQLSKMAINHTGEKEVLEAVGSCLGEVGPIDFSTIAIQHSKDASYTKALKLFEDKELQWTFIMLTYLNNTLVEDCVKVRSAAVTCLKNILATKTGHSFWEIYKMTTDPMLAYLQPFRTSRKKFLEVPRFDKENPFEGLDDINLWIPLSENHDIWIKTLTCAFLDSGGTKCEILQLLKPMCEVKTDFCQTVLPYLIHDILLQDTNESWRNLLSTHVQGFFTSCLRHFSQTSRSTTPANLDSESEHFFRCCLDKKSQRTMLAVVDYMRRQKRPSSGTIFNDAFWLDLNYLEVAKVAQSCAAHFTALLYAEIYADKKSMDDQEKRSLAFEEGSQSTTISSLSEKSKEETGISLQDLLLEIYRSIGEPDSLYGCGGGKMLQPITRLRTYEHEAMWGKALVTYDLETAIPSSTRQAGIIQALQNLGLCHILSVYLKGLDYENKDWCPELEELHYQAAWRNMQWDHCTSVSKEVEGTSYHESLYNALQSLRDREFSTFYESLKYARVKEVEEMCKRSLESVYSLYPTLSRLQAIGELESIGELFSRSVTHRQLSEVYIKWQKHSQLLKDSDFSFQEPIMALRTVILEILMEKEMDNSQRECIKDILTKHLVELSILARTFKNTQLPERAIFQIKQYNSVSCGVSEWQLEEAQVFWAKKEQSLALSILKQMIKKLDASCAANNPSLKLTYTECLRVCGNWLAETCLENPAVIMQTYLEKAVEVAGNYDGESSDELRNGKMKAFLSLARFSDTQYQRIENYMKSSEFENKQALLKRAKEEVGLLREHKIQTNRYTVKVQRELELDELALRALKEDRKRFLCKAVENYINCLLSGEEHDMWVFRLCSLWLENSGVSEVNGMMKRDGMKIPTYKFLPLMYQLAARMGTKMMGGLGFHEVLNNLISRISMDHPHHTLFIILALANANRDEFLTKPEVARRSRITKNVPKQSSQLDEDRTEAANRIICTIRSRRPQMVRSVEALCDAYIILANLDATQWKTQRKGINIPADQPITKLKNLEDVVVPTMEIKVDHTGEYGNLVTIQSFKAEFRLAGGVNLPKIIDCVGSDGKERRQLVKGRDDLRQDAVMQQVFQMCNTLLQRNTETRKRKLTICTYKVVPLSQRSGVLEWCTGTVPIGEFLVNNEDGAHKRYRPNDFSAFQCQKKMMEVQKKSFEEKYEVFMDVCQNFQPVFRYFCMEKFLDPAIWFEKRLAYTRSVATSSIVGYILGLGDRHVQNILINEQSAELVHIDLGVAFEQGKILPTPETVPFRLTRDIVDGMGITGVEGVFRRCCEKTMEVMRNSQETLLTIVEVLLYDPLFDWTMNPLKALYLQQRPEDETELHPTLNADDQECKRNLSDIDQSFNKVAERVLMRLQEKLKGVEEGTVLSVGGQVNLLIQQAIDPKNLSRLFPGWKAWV

Structure (SMILES) | phosphorylation of TBK (p-TBK [1]; Ku55933 indicated concentrations 6 hours, or 5 μM at indicated times, FIGS. 88, 89) | pro-inflammatory cytokine gene expression [2] | expression of ISGs (ISGs; 10 μM Ku55933 for 9 hours (IFIT1, CCL5), FIG. 90) | expression of p-TBK (p-TBK [3]) | mitochondrial DNA (mtDNA) release [4] | cGAS-STING activation (pTBK) induced by AZD1390 after EtBr-induced depletion of mtDNA (cGAS-STING) | enhancement of anti-tumor efficacy of the anti-PD1 antibody (B16F10 melanoma; B16F10, C57BL/6, AZD1390 10 mg/kg daily days 4-14 plus anti-PD1 100 μg/mouse days 6, 9, 12, FIGS. 25, 26) | enhancement of tumor suppression mediated by an anti-PD1 antibody (B16F10 melanoma; B16F10 melanoma, anti-PD1 100 μg/mouse and AZD1390 2.5 mg/Kg, FIG. 11) | effect on tumor growth, single agent (B16F10 melanoma; B16F10 tumors, C57BL/6, AZD1390 alone 10 mg/kg daily days 4-14, FIG. 25) | effect on tumor growth, single agent (4T1 tumor) | phosphorylation of TBK (p-TBK [1]; AZD1390 at indicated concentrations for 48 hrs, FIG. 45) | enhancement of radiotherapy of glioma (glioma) | ATM kinase inhibitor character (ATM kinase) | expression of ISGs (ISGs; 1 μM AZD1390 for 48 hrs, FIG. 46)
O=c1cc(-c2cccc3c2Sc2ccccc2S3)oc(N2CCOCC2)c1 [Ku55933] | induced increased phosphorylation of TBK | induce the pro-inflammatory cytokine genes | induced expression of ISGs | induced expression of p-TBK | – | – | – | – | – | – | – | – | – | –
CC(C)n1c(=O)n(C)c2cnc3cc(F)c(-c4ccc(OCCCN5CCCCC5)nc4)cc3c21 [AZD1390] | – | induce the pro-inflammatory cytokine genes | – | – | induced mitochondrial DNA (mtDNA) release | abrogated | significantly enhanced | significantly enhanced tumor suppression | almost negligible effect | more significant tumor-suppressive effect | induced increased phosphorylation of TBK | significantly enhanced radiotherapy of glioma | potent and selective | induced expression of ISGs
